From PMC11241769, “Comprehensive Characterization of Phytochemical Composition, Membrane Permeability, and Antiproliferative Activity of Juglans nigra Polyphenols” (International Journal of Molecular Sciences, 2024)
Like-named read-outs stand apart in the source and are kept apart here.

Tests used:
[1] = chemical stability in the aqueous solutions/buffer of the PAMPA experiments (UHPLC-DAD)
Experimental: Quantities of the isolated compounds in the PAMPA experiments (14, 58, 74, 86, 92, 106, 141, and 143) were determined by UHPLC-DAD. The Juglans extracts were analyzed by an ACQUITY UPLC H-Class PLUS System equipped with a quaternary solvent delivery pump (QSM), an auto-sampler manager (FTN), a column compartment (CM), and a photodiode array (PDA) detector (Waters Corporation). An Acquity BEH C18 column (100 × 2.1 mm i.d., 1.7 µm; Waters Corporation) maintained at 30 °C was used as stationary phase. Eluent A was 0.3% acetic acid in water and eluent B was acetonitrile, the following gradient elution was applied (flow rate: 0.3 mL/min): 5.0–100.0% B (0.0–11.0 min), 100.0–5.0% B (11.0–11.5 min), 5% B (11.5–15.0 min). The injection volume was 5 µL and chromatograms were recorded at 200–400 nm. The chromatograms acquired at the UV absorption maxima of each compound were used for data evaluation.
Stock solutions (10 mM in methanol) were diluted with the defined buffer (pH 7.4 for the PAMPA-BBB and pH 6.8 for the PAMPA-GI assays) to obtain the donor solutions (composition: 594.0 μL buffer + 6.0 μL stock solution). The buffers were prepared as follows: pH = 6.8: 20.2 g Na2HPO4 ∙ 7H2O and 3.4 g NaH2PO4 ∙ H2O dissolved in distilled water to achieve the final volume of 1000.0 mL, pH adjustment with 0.5 M NaOH or 0.5 M HCl; pH = 7.4: one PBS tablet (Phosphate Buffered Saline, pH 7.4; Sigma Aldrich) dissolved in 200.0 mL distilled water. Donor solutions were filtered through Phenex-RC 15 mm, 0.2 μm syringe filters (Gen-Lab Ltd., Budapest, Hungary).

[2] = test system: Vero E6 non-tumorous kidney cells; assay: selectivity study: cytostatic activity on non-tumorous Vero E6 cells, Alamar Blue assay; assay type: cell-based, African green monkey (C. sabaeus); details: Vero E6 non-tumorous kidney cells
Experimental: (§1) To determine the selectivity, we assessed the compounds on the Vero E6 non-tumorous kidney cells from African green monkeys (C. sabaeus), and their cytostatic activity was determined (Table 3).
(§2) For the selectivity study, a non-human primate cell culture was used. Vero E6 cells were established from kidney tissue sampled from an African green monkey (C. sabaeus) They originated from a primary culture initiated in March 1962 by Yoshihiro Yasumura at Chiba University in Japan. Vero E6 cells were obtained from the European Collection of Authenticated Cell Cultures (ECACC 85020206) and maintained in DMEM high-glucose (4.5 g/L) medium (Lonza, Basel, Switzerland) containing 10% FBS (Gibco, Thermo Fisher Scientific) and supplemented with 2 mM of L-glutamine (Lonza), 1 mM sodium pyruvate (Merck), and CellCultureGuard (PanReacApplichem, ITW Reagents, Darmstadt, Germany) at 37 °C in a humidified atmosphere of 5% CO2.
(§3) All cell cultures were maintained at 37 °C in a humidified atmosphere with 5% CO2. The cells were grown to confluence and then divided into 96-well tissue culture plates with the initial cell number of 5.0 × 10^3 cells/well. […] Control cells were treated with serum-free medium or DMSO (c = 1.0 v/v %) at the same conditions. After this incubation period, cells were washed twice with serum-free medium, and following that, they were cultured for another 72 h in a 10% serum-containing medium at 37 °C. After that, cell viability was determined using the Alamar Blue assay. Alamar Blue is a non-toxic, resazurin-based dye that living cells reduce to a fluorescent molecule, resorufin [99]. Resazurin sodium salt (Merck, Darmstadt, Germany) was dissolved in PBS at c = 0.15 mg/mL, pH 7.4). A measure of 22 uL of the dye was added to each well and incubated at 37 °C for 3 h until the pink color of the reduced dye appeared. Fluorescence intensity in each well was measured using a Synergy H4 multimode microplate reader (BioTek, Winooski, VT); at λex = 530/30 and λem = 610/10 nm.
(§4) The cytostasis values were expressed in the percentage of untreated control.

[3] = PAMPA-BBB (parallel artificial membrane permeability assay, porcine polar brain lipid extract); assay type: in vitro ADME
Experimental: (§5) For the PAMPA-BBB test, 5 μL of porcine polar brain lipid extract (PBLE) solution (16.0 mg PBLE + 8.0 mg cholesterol dissolved in 600.0 μL n-dodecane) was applied for each well of the 96-well polycarbonate-based filter donor plates (top plate) (Multiscreen™-IP, MAIPN4510, pore size 0.45 μm; Merck). For the PAMPA-GI assay, the wells of the top plate were coated with 5 μL of the mixture of 16.0 mg phosphatidylcholine + 8.0 mg cholesterol dissolved in 600.0 μL n-dodecane. A measure of 150.0 μL of aliquots of the filtrated donor solutions were placed on the membrane. The 96-well PTFE acceptor plates (bottom plates) (Multiscreen Acceptor Plate, MSSACCEPTOR; Merck), were filled with 300.0 μL buffer solution (0.01 M PBS buffer, pH 7.4). The donor plate was placed upon the acceptor plate, and both plates were incubated together at 37 °C for 4 h in a Heidolph Titramax 1000 Vibrating platform shaker (Heidolph, Schwabach, Germany).
(§6) After incubation, sandwich plates were separated and the concentrations of each compound in the starting donor solution and in the acceptor and donor wells were determined in triplicate by UHPLC-DAD method described above. […] The effective permeability and the membrane retention in the PAMPA-BBB and the PAMPA GI experiments were calculated by Equations (4)–(7), respectively:(4) Pe=−2.303/A(t−τSS)·VA·VD/VA+VD·lg1−VA+VD/1−MR·VD×CAt/CD0 (5) Pe=−2.303/A(t−τSS)·1/1+ra·lg−ra+1+ra/1−MR×CDt/CD0 where Pe is the effective permeability coefficient (cm/s), A is the filter area (0.24 cm^2), VD and VA are the volumes in the donor (0.15 cm^3) and acceptor phases (0.30 cm^3), t is the incubation time (s), τSS is the time (s) to reach steady-state (240 s), CD(t) is the concentration (mol/cm^3) of the compound in the donor phase at time t, CD(0) is the concentration (mol/cm^3) of the compound in the donor phase at time 0, and MR is the estimated membrane retention factor (the estimated mole fraction of solute lost to the membrane), ra is the sink asymmetry ratio (gradient-pH-induced), defined as:(6) ra=VD/VA×Pe(A→D)/Pe(D→A) (7) MR=1−CDt/CD0−VA/VDCAt/CD0
(§7) All experiments were performed in three triplicates on three consecutive days (n = 9), caffeine standard was used as positive, while rutin as negative control. ClogP values were calculated by ChemAxon Marvin 22.3.

[4] = test system: MDA-MB 231, A2058, HT-29 and Vero E6 cells; assay: in vitro cytostasis, Alamar Blue assay, cell lines taken together; assay type: cell-based; details: tumor cell lines (MDA-MB 231, A2058, HT-29)
Experimental: (§8) For the evaluation of the in vitro antiproliferative activity of the compounds, the cell viability was determined by resazurin (Alamar Blue) assay on MDA-MB 231 breast carcinoma, A2058 melanoma, and HT-29 colon carcinoma cell culture. The control wells were treated only with serum-free medium.
as §1
(§9) The cytostatic effect of the compounds was studied on tumor cell cultures in vitro. MDA-MB-231 human breast adenocarcinoma cells were cultured in DMEM medium supplemented with 10% FBS, 2 mM L-glutamine, penicillin–streptomycin antibiotics mixture (50 IU/mL, and 50 μg/mL, respectively), 1 mM sodium pyruvate, and 1% non-essential amino acid mixture. A2058 human melanoma cells, and HT-29 colorectal carcinoma cells were cultured in RPMI medium supplemented with 10% FBS, 2 mM L-glutamine, and penicillin–streptomycin antibiotics mixture (50 IU/mL and 50 μg/mL, respectively). Cell lines were generous gifts from Dr. József Tóvári (Department of Experimental Pharmacology, National Institute of Oncology, Budapest, Hungary).
as §2, §3, §4

[5] = PAMPA-GI (parallel artificial membrane permeability assay, phosphatidylcholine membrane); assay type: in vitro ADME
Experimental: as §5, §6, §7

[6] = test system: MDA-MB-231 human breast adenocarcinoma cells; assay: in vitro cytostatic (antiproliferative) activity, Alamar Blue (resazurin) assay, MDA-MB 231; assay type: cell-based; details: in vitro cytostatic activity, Alamar Blue (resazurin) assay, MDA-MB 231 breast carcinoma cell culture, read-out: IC50 (µM) MDA-MB 231
Experimental: as §8, §9, §3, §4

[7] = test system: A2058 human melanoma cells; assay: in vitro cytostatic (antiproliferative) activity, Alamar Blue (resazurin) assay, A2058; assay type: cell-based
Experimental: as §8, §9, §3, §4

[8] = test system: HT-29 colorectal carcinoma cells; assay: in vitro cytostatic (antiproliferative) activity, Alamar Blue (resazurin) assay, HT-29; assay type: cell-based; details: Homo sapiens; in vitro cytostatic activity, Alamar Blue (resazurin) assay, HT-29 colon carcinoma cell culture; read-out: IC50 (µM) HT-29
Experimental: as §8, §9, §3, §4

cell culture = test system: cell culture; set-up: method as in PMID 34217043; details: read-out: concentration causing 50% inhibition; depending on cell culture; cited from earlier work

O=c1c(O[C@@H]2OC[C@@H](O)[C@H](O)[C@H]2O)c(-c2ccc(O)c(O)c2)oc2cc(O)cc(O)c12 [Compound 74, quercetin-3-O-xyloside (reynoutrin)]
degradation in the pH 7.4 buffer ([1]; pH 7.4): significant degree of degradation
IC50 (cytostatic activity) on the Vero E6 cells ([2]; selectivity): not cytostatic
logPe PAMPA-BBB (n = 9) ([3]; donor pH 7.4, acceptor pH 7.4, 37 °C, 4 h, n.d. = not detected in the acceptor phase): not detected in the acceptor phase
effect on the tumor cell lines [4]: no effect
logPe PAMPA-GI (n = 9) ([5]; donor pH 6.8, acceptor pH 7.4, 37 °C, 4 h, n.d. = not detected in the acceptor phase): not detected in the acceptor phase

O=C1C=CC(=O)c2c(O)cccc21 [Compound 141, juglone]
additional minor compounds appeared in the aqueous solutions prepared for the PAMPA experiments ([1]; based on UHPLC-DAD, aqueous donor solutions): < 10%
IC50 [6]: 9.9 ± 0.7 µM
IC50 ([2]; Chlorocebus sabaeus, Vero C1008, in vitro cytostatic activity, Alamar Blue assay, read-out: IC50 (µM) VERO E6 Non Tumorous): 3.7 ± 0.7 µM
IC50 ([7]; A2058 melanoma, treatment overnight, then 72 h culture, Alamar Blue, read-out: IC50 (antiproliferative effect) on the melanoma culture): 15.5 µM
IC50 ([7]; in vitro cytostatic activity, Alamar Blue (resazurin) assay, A2058 melanoma cell culture, read-out: IC50 (µM) A2058): 13.5 ± 0.7 µM
Papp at 4 h, 100 µM ([3]; pig, PAMPA, pH 7.4, read-out: logPe PAMPA-BBB (n = 9) (converted)): 77.6 ×10⁻⁶ cm/s
IC50 [8]: 0.53 ± 0.1 µM
Papp at 4 h, 100 µM ([5]; PAMPA, read-out: logPe PAMPA-GI (n = 9) (converted)): 38.9 ×10⁻⁶ cm/s

C/C=C/C1=CC=C/C(=C2\C(=O)CNC2=O)O1 [vermelhotin]
IC50 (cell culture): 12 to 20 µM
